Results taken from PMC12396409, “Screening and hit evaluation of a microbial metabolite library against the pathogenic Plasmodium falciparum and Toxoplasma gondii parasites” (International Journal for Parasitology: Drugs and Drug …, 2025).
Like-named read-outs stand apart in the source and are kept apart here. Where a SMILES comes first, the peptide text is derived from it. [ ]: non-standard residue; d: D form. GABA = NCCCC(=O)O

Legend:
[1] = system: P. falciparum 3D7 parasites; experiment: P. falciparum growth inhibition assay, 1-cycle (72 h treatment), SYBR DNA staining (library screen at 2 μg/mL and dose-response); assay type: cell-based, Plasmodium falciparum; details: for activity at 2 µg/mL: Plasmodium falciparum, 3D7
[2] = system: P. falciparum 3D7 parasites; experiment: P. falciparum growth inhibition assay, 2-cycle (120 h treatment), delayed-death screen and dose-response; assay type: cell-based, Plasmodium falciparum; details: for activity at 2 µg/mL: Plasmodium falciparum, 3D7
[3] = system: T. gondii RH strain (RH-Tub-eYFP) tachyzoites; experiment: microbe, parasite or virus in culture; assay type: cell-based, Toxoplasma gondii; details: 72 h; for percent parasite growth at 2 µg/mL: Toxoplasma gondii
[4] = P. falciparum, 72 h, screen at 2 μg/mL, replicate 1
[5] = P. falciparum, 72 h, screen at 2 μg/mL, replicate 2
[6] = P. falciparum, 120 h, screen at 2 μg/mL, replicate 1
[7] = P. falciparum, 120 h, screen at 2 μg/mL, replicate 2
[8] = T. gondii, screen at 2 μg/mL, replicate 1
[9] = T. gondii, screen at 2 μg/mL, replicate 2
[10] = P. falciparum 3D7, 72 h, library screen at 2 μg/mL, % growth, replicate 1
[11] = P. falciparum 3D7, 72 h, library screen at 2 μg/mL, % growth, replicate 2
[12] = P. falciparum 3D7, 120 h, library screen at 2 μg/mL, % growth, replicate 1
[13] = P. falciparum 3D7, 120 h, library screen at 2 μg/mL, % growth, replicate 2
[14] = T. gondii RH, library screen at 2 μg/mL, % growth, replicate 1
[15] = T. gondii RH, library screen at 2 μg/mL, % growth, replicate 2
[16] = P. falciparum 3D7, 72 h, parasite screen at 2 μg/mL, % growth, replicate 1
[17] = P. falciparum 3D7, 72 h, parasite screen at 2 μg/mL, % growth, replicate 2
[18] = P. falciparum 3D7, 120 h, parasite screen at 2 μg/mL, % growth, replicate 1
[19] = P. falciparum 3D7, 120 h, parasite screen at 2 μg/mL, % growth, replicate 2
[20] = T. gondii, parasite screen at 2 μg/mL, % growth, replicate 1
[21] = T. gondii, parasite screen at 2 μg/mL, % growth, replicate 2
[22] = library screen at 2 μg/mL, 72 h, % growth, replicate 1
[23] = library screen at 2 μg/mL, 72 h, % growth, replicate 2
[24] = library screen at 2 μg/mL, 120 h, % growth, replicate 1
[25] = library screen at 2 μg/mL, 120 h, % growth, replicate 2
[26] = library screen at 2 μg/mL, % growth, replicate 1
[27] = library screen at 2 μg/mL, % growth, replicate 2

Compound: COc1cc(/C=N/O)nc(-c2ccccn2)c1 [Caerulomycin]
- Pf_72h_%Growth_Rep1 [1, 4]: 5.29%
- Pf_72h_%Growth_Rep2 [1, 5]: 5.34%
- Pf_120h_%Growth_Rep1 [2, 6]: 2.50%
- Pf_120h_%Growth_Rep2 [2, 7]: -6.36%
- Tg_72h_%Growth_Rep1 [3, 8]: 2.08%
- Tg_72h_%Growth_Rep2 [3, 9]: 0.20%

Compound: CC(=O)c1c(O)c(C(C)=O)c(O)c(C(C)=O)c1O [Triacetylphloroglucinol]
- Pf_72h_%Growth_Rep1 [1, 4]: 83.84%
- Pf_72h_%Growth_Rep2 [1, 5]: 50.48%
- Pf_120h_%Growth_Rep1 [2, 6]: 80.17%
- Pf_120h_%Growth_Rep2 [2, 7]: 112.26%
- Tg_72h_%Growth_Rep1 [3, 8]: 132.07%
- Tg_72h_%Growth_Rep2 [3, 9]: 93.42%

Compound: CN1C(=O)c2ccccc2NC(=O)/C1=C/c1ccccc1 [Dehydrocyclopeptine]
- Pf_72h_%Growth_Rep1 [1, 4]: 83.17%
- Pf_72h_%Growth_Rep2 [1, 5]: 27.60%
- Pf_120h_%Growth_Rep1 [2, 6]: 82.86%
- Pf_120h_%Growth_Rep2 [2, 7]: 97.23%
- Tg_72h_%Growth_Rep1 [3, 8]: 109.69%
- Tg_72h_%Growth_Rep2 [3, 9]: 83.37%

Compound: CC(C=CC1OC(=O)C=CC1C)=CC(C)CC=CC(C)=CC(C)C(=O)C(C)C(O)C(C)CC(C)=CC(=O)O (stereo not drawn) [BIA-L1045]
- Pf_72h_%Growth_Rep1 [1, 10]: 49.36%
- Pf_72h_%Growth_Rep2 [1, 11]: 24.76%
- Pf_120h_%Growth_Rep1 [2, 12]: 60.90%
- Pf_120h_%Growth_Rep2 [2, 13]: 15.41%
- Tg_72h_%Growth_Rep1 [3, 14]: -0.52%
- Tg_72h_%Growth_Rep2 [3, 15]: -0.11%

Compound: CC(C)[C@H]1NC(=O)[C@H](Cc2ccccc2)NC(=O)[C@@H](C(C)C)NC(=O)[C@@H](C)NC(=O)CCCNC(=O)[C@@H](Cc2c[nH]c3ccccc23)NC(=O)[C@@H](C)NC1=O [Unguisin A] (cyclo(F[dV][dA][dW][GABA][dA][dV]))
- Pf_72h_%Growth_Rep1 [1, 4]: 89.83%
- Pf_72h_%Growth_Rep2 [1, 5]: 117.62%
- Pf_120h_%Growth_Rep1 [2, 6]: 110.43%
- Pf_120h_%Growth_Rep2 [2, 7]: -17.05%
- Tg_72h_%Growth_Rep1 [3, 8]: 121.37%
- Tg_72h_%Growth_Rep2 [3, 9]: 69.01%

Compound: Cc1cc(O)c(O)c2oc(=O)c3c(O)cc(O)cc3c12 [BIA-H1558]
- Pf_72h_%Growth_Rep1 [1, 10]: 87.28%
- Pf_72h_%Growth_Rep2 [1, 11]: 114.26%
- Pf_120h_%Growth_Rep1 [2, 12]: 93.99%
- Pf_120h_%Growth_Rep2 [2, 13]: 107.81%
- Tg_72h_%Growth_Rep1 [3, 14]: 100.18%
- Tg_72h_%Growth_Rep2 [3, 15]: 87.83%

Compound: Cc1c2ccocc-2oc1=O [BIA-K1791]
- Pf_72h_%Growth_Rep1 [1, 10]: 78.18%
- Pf_72h_%Growth_Rep2 [1, 11]: 121.18%
- Pf_120h_%Growth_Rep1 [2, 12]: 94.18%
- Pf_120h_%Growth_Rep2 [2, 13]: 112.81%
- Tg_72h_%Growth_Rep1 [3, 14]: 112.84%
- Tg_72h_%Growth_Rep2 [3, 15]: 99.08%

Compound: Cc1cc(O)c(C)c(O)c1C(=O)O [BIA-M1661]
- Pf_72h_%Growth_Rep1 [1, 16]: 76.46%
- Pf_72h_%Growth_Rep2 [1, 17]: 83.29%
- Pf_120h_%Growth_Rep1 [2, 18]: 67.73%
- Pf_120h_%Growth_Rep2 [2, 19]: 68.25%
- Tg_72h_%Growth_Rep1 [3, 20]: 153.94%
- Tg_72h_%Growth_Rep2 [3, 21]: 85.55%

Compound: COC[C@H]1OC(=O)c2coc3c2[C@@]1(C)C1=C(C3=O)[C@@H]2CCC(=O)[C@@]2(C)C[C@H]1OC(C)=O [Wortmannin]
- activity at 2 µg/mL ([1]; P. falciparum, 72 h, screen at 2 μg/mL, replicate 1, read-out: Pf_72h_%Growth_Rep1): 88.8%
- activity at 2 µg/mL ([1]; P. falciparum, 72 h, screen at 2 μg/mL, replicate 2, read-out: Pf_72h_%Growth_Rep2): 119%
- activity at 2 µg/mL ([2]; P. falciparum, 120 h, screen at 2 μg/mL, replicate 1, read-out: Pf_120h_%Growth_Rep1): 109%
- activity at 2 µg/mL ([2]; P. falciparum, 120 h, screen at 2 μg/mL, replicate 2, read-out: Pf_120h_%Growth_Rep2): 96.5%
- percent parasite growth at 2 µg/mL ([3]; T. gondii, screen at 2 μg/mL, replicate 1, read-out: Tg_72h_%Growth_Rep1): 97.3%
- percent parasite growth at 2 µg/mL ([3]; T. gondii, screen at 2 μg/mL, replicate 2, read-out: Tg_72h_%Growth_Rep2): 76.4%

Compound: Cc1c2c(c(O)c3c(O)cccc13)C(=O)O[C@@H]2[C@H]1[C@H](N(C)C)C(O)=C(C(N)=O)C(=O)[C@@H]1O [Apooxytetracycline, beta-]
- Pf_72h_%Growth_Rep1 [1, 22]: 86.47%
- Pf_72h_%Growth_Rep2 [1, 23]: 89.55%
- Pf_120h_%Growth_Rep1 [2, 24]: 69.86%
- Pf_120h_%Growth_Rep2 [2, 25]: 97.44%
- Tg_72h_%Growth_Rep1 [3, 26]: 117.82%
- Tg_72h_%Growth_Rep2 [3, 27]: 102.07%

Compound: CCCCCCC(C)C/C(C)=C/C(C)/C=C(C)/C=C/C(O)C(C)(C)c1cc(O)c([C@@H]2O[C@H](CO)C[C@H](O)[C@H]2O)c(=O)o1 (stereo partly drawn) [Deoxyfusapyrone]
- Pf_72h_%Growth_Rep1 [1, 4]: 84.11%
- Pf_72h_%Growth_Rep2 [1, 5]: 85.81%
- Pf_120h_%Growth_Rep1 [2, 6]: 68.41%
- Pf_120h_%Growth_Rep2 [2, 7]: 93.55%
- Tg_72h_%Growth_Rep1 [3, 8]: 120.14%
- Tg_72h_%Growth_Rep2 [3, 9]: 99.56%

Compound: CON=C1CC2(CC3CC(CC=C(C)CC(C)C=CC=C4COC5C(O)C(C)=CC(C(=O)O3)C45O)O2)OC(C(C)=CC(C)C)C1C (stereo not drawn) [BIA-M1298]
- Pf_72h_%Growth_Rep1 [1, 16]: 17.45%
- Pf_72h_%Growth_Rep2 [1, 17]: -0.02%
- Pf_120h_%Growth_Rep1 [2, 18]: -5.10%
- Pf_120h_%Growth_Rep2 [2, 19]: 5.91%
- Tg_72h_%Growth_Rep1 [3, 20]: 102.84%
- Tg_72h_%Growth_Rep2 [3, 21]: 95.78%

Compound: Elaiophylin
- Pf_72h_%Growth_Rep1 [1, 22]: 6.63%
- Pf_72h_%Growth_Rep2 [1, 23]: 7.41%
- Pf_120h_%Growth_Rep1 [2, 24]: 18.08%
- Pf_120h_%Growth_Rep2 [2, 25]: 22.72%
- Tg_72h_%Growth_Rep1 [3, 26]: -0.18%
- Tg_72h_%Growth_Rep2 [3, 27]: 0.99%
